According to patent US8461328B2, “Tricyclic heterocyclic compounds, compositions and methods of use thereof” (Genentech, Inc., priority 2010, dated 2013):

Key:
Assay type in all cases: biochemical
JAK1 = target: T1, JAK1 (Homo sapiens, UniProt P23458); experiment: JAK1 inhibition (Table 4); conditions: read-out: JAK1 Ki
T1 construct: made in house; host or cells: SF9 insect cells (baculovirus)

JAK2 = target: T2, JAK2 (Homo sapiens, UniProt O60674); experiment: JAK2 inhibition (Table 4); conditions: read-out: JAK2 Ki
T2 construct: made in house; host or cells: SF9 insect cells (baculovirus)

JAK3 = target: T3, JAK3 (Homo sapiens, UniProt P52333); experiment: JAK3 inhibition (Table 4); conditions: read-out: JAK3 Ki
T3 construct: made in house; host or cells: SF9 insect cells (baculovirus)

TYK2 = target: T4, TYK2 (Homo sapiens, UniProt P29597); experiment: TYK2 inhibition (Table 4)
T4 construct: made in house; host or cells: SF9 insect cells (baculovirus)
T4 sequence (P29597 873-1187): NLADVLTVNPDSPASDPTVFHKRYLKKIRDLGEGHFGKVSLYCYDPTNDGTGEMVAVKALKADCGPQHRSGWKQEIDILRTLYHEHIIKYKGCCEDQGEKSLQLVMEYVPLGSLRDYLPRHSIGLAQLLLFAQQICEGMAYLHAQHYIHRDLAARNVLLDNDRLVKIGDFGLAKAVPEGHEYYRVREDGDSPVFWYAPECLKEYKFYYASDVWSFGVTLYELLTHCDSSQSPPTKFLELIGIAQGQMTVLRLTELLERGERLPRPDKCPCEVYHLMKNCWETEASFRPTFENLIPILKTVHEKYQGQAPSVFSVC

T1 sequence (P23458 852-1154): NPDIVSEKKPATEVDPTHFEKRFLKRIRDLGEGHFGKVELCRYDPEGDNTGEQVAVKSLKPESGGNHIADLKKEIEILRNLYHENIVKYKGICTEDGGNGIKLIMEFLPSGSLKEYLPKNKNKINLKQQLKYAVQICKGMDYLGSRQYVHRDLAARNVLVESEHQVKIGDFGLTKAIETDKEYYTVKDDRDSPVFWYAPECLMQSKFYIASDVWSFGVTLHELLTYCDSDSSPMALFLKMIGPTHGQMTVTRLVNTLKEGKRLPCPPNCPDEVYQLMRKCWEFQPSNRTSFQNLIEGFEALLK
T2 sequence (O60674 812-1132): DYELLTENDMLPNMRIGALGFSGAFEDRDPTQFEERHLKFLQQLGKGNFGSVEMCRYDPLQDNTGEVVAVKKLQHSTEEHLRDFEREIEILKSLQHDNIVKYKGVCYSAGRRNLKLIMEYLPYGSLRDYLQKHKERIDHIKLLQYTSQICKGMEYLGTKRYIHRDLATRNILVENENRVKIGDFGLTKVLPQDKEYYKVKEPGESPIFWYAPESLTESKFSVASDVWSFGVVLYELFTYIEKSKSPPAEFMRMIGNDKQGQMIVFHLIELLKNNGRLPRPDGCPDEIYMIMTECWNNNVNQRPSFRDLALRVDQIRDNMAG
T3 sequence (P52333 783-1124): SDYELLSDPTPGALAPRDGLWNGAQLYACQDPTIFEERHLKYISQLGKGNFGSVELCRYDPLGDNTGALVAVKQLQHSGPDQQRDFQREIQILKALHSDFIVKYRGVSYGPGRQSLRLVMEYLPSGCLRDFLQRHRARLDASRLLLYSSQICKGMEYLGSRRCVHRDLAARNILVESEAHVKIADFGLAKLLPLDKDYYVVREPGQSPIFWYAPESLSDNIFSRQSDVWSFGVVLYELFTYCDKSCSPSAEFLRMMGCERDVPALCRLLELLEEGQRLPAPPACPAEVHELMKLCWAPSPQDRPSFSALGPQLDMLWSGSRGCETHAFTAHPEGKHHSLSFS

What does the source list for `Fc1cccc(CN2CCC(n3cnc4cnc5[nH]ccc5c43)CC2)c1` [Example 67, 1-[1-(3-Fluoro-benzyl)-piperidin-4-yl]-1,6-dihydro-1,3,5,6-tetraaza-as-indacene]?
Ki (JAK1): 0.75 nM; Ki (JAK2): 1.16 nM; Ki (JAK3): 9.48 nM; Ki (TYK2): 23.6 nM

What does the source list for `NCC(F)(F)c1nc2cnc3[nH]ccc3c2n1C1CCN(Cc2cccnc2)CC1` [Example 588, 2,2-Difluoro-2-[1-(1-pyridin-3-ylmethyl-piperidin-4-yl)-1,6-dihydro-1,2,3,5,6-tetraaza-as-indacen-2-yl]-ethylamine]?
Ki (JAK1): 5.81 nM; Ki (JAK2): 13.3 nM; Ki (JAK3): 5.73 nM; Ki (TYK2): 584 nM

Which Ki (JAK1) does the source give for `Cc1nc2cnc3[nH]ccc3c2n1C1CCN(CC(F)(F)F)CC1` [Example 587, 2-Methyl-1-[1-(2,2,2-trifluoro-ethyl)-piperidin-4-yl]-1,6-dihydro-1,2,3,5,6-tetraaza-as-indacene] here?
Its Ki is 0.61 nM.

What about the Ki (JAK2) of the same compound?
Its Ki is 2.16 nM.

And the Ki (JAK3)?
Its Ki is 8.35 nM.

And the Ki (TYK2)?
The Ki was 8.02 nM.

With `O=C1CC(n2cnc3cnc4[nH]ccc4c32)CCN1Cc1ccccc1` (racemic) [Example 129, 1-Benzyl-4-(6H-1,2,3,5,6-tetraaza-as-indacen-1-yl)-piperidin-2-one] as the compound, how does the Ki (JAK1) read?
Its Ki is 43.8 nM.

And the Ki (JAK2)?
The Ki was 57.2 nM.

What about the Ki (JAK3) of the same compound?
Its Ki is 535 nM.

What about the Ki (TYK2) of the same compound?
Its Ki is 312 nM.

How did the Ki (JAK1) turn out when `OCc1nc2cnc3[nH]ccc3c2n1C1CCCOC1` (single isomer, unassigned) [Example 463, [1-(Tetrahydro-pyran-3-yl)-1,6-dihydro-1,3,5,6-tetraaza-as-indacen-2-yl]-methanol] was run?
Its Ki is 12.2 nM.

And the Ki (JAK2)?
Its Ki is 74.9 nM.

And the Ki (JAK3)?
Its Ki is 191 nM.

What about the Ki (TYK2) of the same compound?
The Ki was 55.5 nM.

Which results are given for `N#CC1CCC(n2c(CO)nc3cnc4[nH]ccc4c32)CC1` (stereo not shown) [Example 777, 4-(2-Hydroxymethyl-6H-1,3,5,6-tetraaza-as-indacen-1-yl)-cyclohexanecarbonitrile]?
Ki (JAK1): 1.3 nM; Ki (JAK2): 6.86 nM; Ki (JAK3): 1.04 nM; Ki (TYK2): 0.64 nM

How did the Ki (JAK1) turn out when `Cc1nccn1Cc1nc2cnc3[nH]ccc3c2n1C1CCN(CCC#N)CC1` [Example 402, 3-{4-[2-(2-Methyl-imidazol-1-ylmethyl)-6H-1,3,5,6-tetraaza-as-indacen-1-yl]-piperidin-1-yl}-propionitrile] was run?
The Ki was 5.4 nM.

And the Ki (JAK2)?
Its Ki is 8.8 nM.

And the Ki (JAK3)?
The Ki was 66.8 nM.

What about the Ki (TYK2) of the same compound?
Its Ki is 35.7 nM.

`O=S1(=O)CCCN1CCc1nc2cnc3[nH]ccc3c2n1C1CCCCC1` [Example 922, 1-Cyclohyl-2-[2-(1,1-dioxo-1-isothiazolidin-2-yl)-ethyl]-1,6-dihydro-1,3,5,6-tetraaza-as-indacene] was tested. Which Ki (JAK1) did it give?
Its Ki is 13.3 nM.

And the Ki (JAK2)?
Its Ki is 49.8 nM.

What about the Ki (JAK3) of the same compound?
The Ki was 51.6 nM.

And the Ki (TYK2)?
Its Ki is 146 nM.

With `CS(=O)(=O)NCc1nc2cnc3[nH]ccc3c2n1C1CC2CCC1O2` (single isomer, unassigned) [Example 850, endo-N-[1-(7-Oxa-bicyclo[2.2.1]hept-2-yl)-1,6-dihydro-1,3,5,6-tetraaza-as-indacen-2-ylmethyl]-methanesulfonamide] as the compound, how does the Ki (JAK1) read?
Its Ki is 60.5 nM.

And the Ki (JAK2)?
Its Ki is 134 nM.

What about the Ki (JAK3) of the same compound?
The Ki was 106 nM.

What about the Ki (TYK2) of the same compound?
The Ki was 361 nM.

With `CC1CNCCC1n1cnc2cnc3[nH]ccc3c21` (racemic) [Example 306, 1-(3-Methyl-piperidin-4-yl)-1,6-dihydro-1,3,5,6-tetraaza-as-indacene] as the compound, how does the Ki (JAK1) read?
The Ki was 34.9 nM.

And the Ki (JAK2)?
The Ki was 156 nM.

What about the Ki (JAK3) of the same compound?
The Ki was 468 nM.

And the Ki (TYK2)?
Its Ki is 449 nM.

`c1cc2c(ncc3nnn(C4CCCOC4)c32)[nH]1` (single isomer, unassigned) [Example 460, 1-(Tetrahydro-pyran-3-yl)-1,6-dihydro-1,2,3,5,6-pentaaza-as-indacene] was tested. Which Ki (JAK1) did it give?
The Ki was 8.36 nM.

And the Ki (JAK2)?
The Ki was 17.3 nM.

What about the Ki (JAK3) of the same compound?
Its Ki is 313 nM.

What about the Ki (TYK2) of the same compound?
Its Ki is 76.5 nM.

Which results are given for `C[C@@H](O)c1nc2cnc3[nH]ccc3c2n1C1CCC(CS(C)(=O)=O)CC1` (mixture of isomers) [Example 649, (R)-1-[1-(4-Methanesulfonylmethyl-cyclohexyl)-1,6-dihydro-1,2,3,5,6-tetraaza-as-indacen-2-yl]-ethanol]?
Ki (JAK1): 4.82 nM; Ki (JAK2): 38.6 nM; Ki (JAK3): 68.6 nM; Ki (TYK2): 38.4 nM

Which Ki (JAK1) does the source give for `O[C@@H]1CC[C@H](n2cnc3cnc4[nH]ccc4c32)C1` [Example 710, (1R,3S)-3-(6H-1,2,3,5,6-Tetraaza-as-indacen-1-yl)-cyclopentanol] here?
Its Ki is 6.85 nM.

What about the Ki (JAK2) of the same compound?
The Ki was 34.3 nM.

What about the Ki (JAK3) of the same compound?
The Ki was 45 nM.

And the Ki (TYK2)?
The Ki was 50.6 nM.

Which results are given for `O=C(Cc1nc2cnc3[nH]ccc3c2n1C1CCN(Cc2ccccc2)CC1)N1CCOCC1` [Example 23, 2-[1-(1-Benzyl-piperidin-4-yl)-1,6-dihydro-1,2,3,5,6-tetraaza-as-indacen-2-yl]-1-morpholin-4-yl-ethanone]?
Ki (JAK1): 6.22 nM; Ki (JAK2): 62.7 nM; Ki (JAK3): 9.98 nM; Ki (TYK2): 616 nM

For `OC1CCCC(n2nnc3cnc4[nH]ccc4c32)C1` (single isomer, unassigned) [Example 554, 3-(6H-1,2,3,5,6-Pentaaza-as-indacen-1-yl)-cyclohexanol], which Ki (JAK1) is on record?
The Ki was 13.3 nM.

What about the Ki (JAK2) of the same compound?
The Ki was 31.6 nM.

What about the Ki (JAK3) of the same compound?
The Ki was 77.3 nM.

What about the Ki (TYK2) of the same compound?
The Ki was 60.6 nM.

Which Ki (JAK1) does the source give for `N#Cc1cccc(S(=O)(=O)N2CC[C@@H](n3cnc4cnc5[nH]ccc5c43)C2)c1` [Example 434, 3-[(R)-3-(6H-1,3,5,6-Tetraaza-as-indacen-1-yl)-pyrrolidine-1-sulfonyl]-benzonitrile] here?
Its Ki is 5.67 nM.

What about the Ki (JAK2) of the same compound?
Its Ki is 6.22 nM.

And the Ki (JAK3)?
The Ki was 1200 nM.

What about the Ki (TYK2) of the same compound?
The Ki was 32.5 nM.

For `N#Cc1cccc(N2CCC(n3cnc4cnc5[nH]ccc5c43)CC2)n1` [Example 94, 4-(6H-1,3,5,6-Tetraaza-as-indacen-1-yl)-3,4,5,6-tetrahydro-2H-[1,2′]bipyridinyl-6′-carbonitrile], which Ki (JAK1) is on record?
The Ki was 0.73 nM.

And the Ki (JAK2)?
The Ki was 2.82 nM.

And the Ki (JAK3)?
Its Ki is 7.69 nM.

What about the Ki (TYK2) of the same compound?
The Ki was 21 nM.

With `CS(=O)(=O)N1CC[C@@H](n2cnc3cnc4[nH]ccc4c32)C1` [Example 190, 1-((R)-1-Methanesulfonyl-pyrrolidin-3-yl)-1,6-dihydro-1,2,3,5,6-tetraaza-as-indacene] as the compound, how does the Ki (JAK1) read?
The Ki was 62.7 nM.

And the Ki (JAK2)?
Its Ki is 67.4 nM.

What about the Ki (JAK3) of the same compound?
Its Ki is 59.2 nM.

What about the Ki (TYK2) of the same compound?
Its Ki is 114 nM.

`CS(=O)(=O)N1CCC(n2c(-c3cccnc3)nc3cnc4[nH]ccc4c32)CC1` [Example 361, 1-(1-Methanesulfonyl-piperidin-4-yl)-2-pyridin-3-yl-1,6-dihydro-1,3,5,6-tetraaza-as-indacene] was tested. Which Ki (JAK1) did it give?
Its Ki is 379 nM.

What about the Ki (JAK2) of the same compound?
The Ki was 248 nM.

What about the Ki (JAK3) of the same compound?
Its Ki is 354 nM.

What about the Ki (TYK2) of the same compound?
Its Ki is 732 nM.

What does the source list for `N#CCC(=O)NC1CCC(n2cnc3cnc4[nH]ccc4c32)C1` (racemic) [Example 629, Racemic trans 2-cyano-N-[3-(6H-1,2,3,5,6-tetraaza-as-indacen-1-yl)-cyclopentyl]-acetamide]?
Ki (JAK1): 1.36 nM; Ki (JAK2): 4.99 nM; Ki (JAK3): 11 nM; Ki (TYK2): 32 nM

With `Cc1nc2cnc3[nH]ccc3c2n1[C@H]1CC[C@H](CO)CC1` [Example 633, Trans[4-(2-methyl-6H-1,2,3,5,6-tetraaza-as-indacen-1-yl)-cyclohexyl]-methanol] as the compound, how does the Ki (JAK1) read?
The Ki was 1.19 nM.

And the Ki (JAK2)?
The Ki was 3.31 nM.

What about the Ki (JAK3) of the same compound?
The Ki was 12.1 nM.

What about the Ki (TYK2) of the same compound?
Its Ki is 6.08 nM.

Which results are given for `CC(C)(C)OC(=O)N1CCCC1(C)C(=O)N1CCC(n2cnc3cnc4[nH]ccc4c32)CC1` (racemic) [Example 244, 2-Methyl-2-[4-(6H-1,3,5,6-tetraaza-as-indacen-1-yl)-piperidine-1-carbonyl]-pyrrolidine-1 carboxylic acid tert-butyl ester]?
Ki (JAK1): 198 nM; Ki (JAK2): 363 nM; Ki (JAK3): 3400 nM; Ki (TYK2): 1820 nM
